# Laboratory results taken from patent US7829110B2, “Surgical implant comprising an anabolic and a corticosteroid” (Ethicon, Inc., priority 2003, dated 2010).
# System: fibroblast (human, dermal)
# Assay: fibroblast contraction (human, dermal)
# Assay type: cell-based
# Settings: human dermal fibroblasts; even at low doses
# Text: Cortisone prevents fibroblast contraction (human, dermal) even at low doses (below 10^−6 M)
smiles,measurement,value
"C[C@]12CCC(=O)C=C1CC[C@@H]1[C@@H]2C(=O)C[C@@]2(C)[C@H]1CC[C@]2(O)C(=O)CO [Cortisone, cortisone]",dose preventing fibroblast contraction,below 10^−6 M
